These are literature values, as cited in patent US20050025723A1, “Sunburn treatment and sunburn prevention method” (priority 2000, published 2005).

“Also recorded” adds a separate entry of the source.

Series [1] relates to fever. The note with it: compared with parent peptide α-MSH or α-MSH(11-13); literature statements.
For series [2], the system named is inflammation. The conditions noted are these: in vitro and in vivo; compared with parent molecule or the L-form tripeptide; literature statements.
The subject of series [3] is learning and memory. The note with it: in vivo.
Series [4] concerns melanocytes and melanoma cells.

As to “8-13 sequence: α-MSH 8-13 sequence (RWGKPV; Designed polypeptide with anti-inflammatory, anti-bacterial, anti-fungal and antipyretic properties.)”, the “antipyretic potency / activity (reducing fever)” value in series [1] is reported as “greater than that of the 11-13 sequence”. Take “9-13 sequence: α-MSH 9-13 sequence (WGKPV; C-terminal sequences of alpha-MSH)”: in series [1], the “antipyretic potency / activity (reducing fever)” value is on record as “almost devoid of activity”.

Regarding “10-13 sequence: α-MSH 10-13 sequence formed by addition of glycine to α-MSH(11-13) (GKPV; Designed polypeptide with anti-inflammatory, anti-bacterial, anti-fungal and antipyretic properties.)”, the “antipyretic potency / activity (reducing fever)” value in series [1] is reported as “slightly decreased potency”. For Ac-[D-K11]-α-MSH 11-13-NH2, the “anti-inflammatory activity / potency” value in series [2] is on record as “same general potency as the L-form of the tripeptide”. On to MEHFRWG [α-MSH sequence (4-10)], for which the “antipyretic potency / activity (reducing fever)” value in series [1] is on record as “little”. In series [2], the “anti-inflammatory activity / potency” value is listed as “little”. Also, the “learning and memory behavioral effects” value in series [3] is “has learning and memory behavioral effects”. Regarding [Nle^4,D-Phe^7]α-MSH, the “biological activity on melanocytes and melanoma cells” value in series [4] was “marked biological activity”. Besides, the “antipyretic potency / activity (reducing fever)” value in series [1] was “approximately ten times more potent than the parent peptide”. Take lysine-proline-valine [KPV]: the “antipyretic potency / activity (reducing fever)” value in series [1] is recorded as “parallel those of the parent molecule”. For the same substance, the “anti-inflammatory activity / potency” value in series [2] is reported as “parallel those of the parent molecule; also recorded: effective over a very broad range of concentrations, including picomolar concentrations”.
